Where two headings read alike, the source gives them in different places.
How the values were obtained:
[1] = target: human full-length glucocorticoid receptor (Homo sapiens (Human), UniProt P04150); experiment: Glucocorticoid Receptor Binding Assay (II), fluorescence polarization competitor kit; conditions: read-out: GR (Ki, nM) (measured in GR binding Assay II)
Procedure: In order to measure the binding of compounds on the glucocorticoid receptor a commercially available kit was used (Glucocorticoid receptor competitor assay kit, PanVera Co., Madison, Wis., P2816). Briefly, a cell lysate containing recombinantly expressed human full-length glucocorticoid receptor was mixed with a fluorescently labeled glucocorticoid (1 nM Fluormone GS1) in the presence or absence of test compound. After one hour at room temperature, the fluorescence polarization (FP) of the samples were measured.

[2] = system: AP-1 induced transcriptional activity; experiment: Cellular transrepressional assay (AP-1 luciferase reporter, PMA-activated A549 cell); format: cell-based; conditions: A549 cell, 10 ng/ml PMA, 7 hours; for EC50: read-out: AP-1 (EC50, nM) (measured in cellular transrepression assay)
Procedure: To measure the ability of test molecules to inhibit AP-1 induced transcriptional activity we utilized an A549 cell which was stably transfected with a plasmid containing 7×AP-1 DNA binding sites (pAP-1-Luc plasmid, Stratagene Co., La Jolla, Calif.) followed by the gene for luciferase. Cells were activated with 10 ng/ml of phorbol myristic acid (PMA) plus or minus test molecules for 7 hours. After 7 hours a luciferase reagent was added to measure luciferase enzymatic activity in the cell. After a 10 minute incubation of luciferase reagent with cells, luminescence was measured in a TOPCOUNT® luminescence counter. Repression of AP-1 activity was calculated as the percentage decrease in the signal induced by PMA alone. Test molecules were analyzed in the concentration range from 0.1 nM to 40 μM. EC50s were determined by using standard curve fitting methods such as Excel fit (Microsoft Co.). An EC50 is the test molecule concentration at which there is a 50% repression of the maximal inhibition of transcription, i.e., a 50% reduction of AP-1 activity.

human full-length glucocorticoid receptor, sequence (P04150 whole entry): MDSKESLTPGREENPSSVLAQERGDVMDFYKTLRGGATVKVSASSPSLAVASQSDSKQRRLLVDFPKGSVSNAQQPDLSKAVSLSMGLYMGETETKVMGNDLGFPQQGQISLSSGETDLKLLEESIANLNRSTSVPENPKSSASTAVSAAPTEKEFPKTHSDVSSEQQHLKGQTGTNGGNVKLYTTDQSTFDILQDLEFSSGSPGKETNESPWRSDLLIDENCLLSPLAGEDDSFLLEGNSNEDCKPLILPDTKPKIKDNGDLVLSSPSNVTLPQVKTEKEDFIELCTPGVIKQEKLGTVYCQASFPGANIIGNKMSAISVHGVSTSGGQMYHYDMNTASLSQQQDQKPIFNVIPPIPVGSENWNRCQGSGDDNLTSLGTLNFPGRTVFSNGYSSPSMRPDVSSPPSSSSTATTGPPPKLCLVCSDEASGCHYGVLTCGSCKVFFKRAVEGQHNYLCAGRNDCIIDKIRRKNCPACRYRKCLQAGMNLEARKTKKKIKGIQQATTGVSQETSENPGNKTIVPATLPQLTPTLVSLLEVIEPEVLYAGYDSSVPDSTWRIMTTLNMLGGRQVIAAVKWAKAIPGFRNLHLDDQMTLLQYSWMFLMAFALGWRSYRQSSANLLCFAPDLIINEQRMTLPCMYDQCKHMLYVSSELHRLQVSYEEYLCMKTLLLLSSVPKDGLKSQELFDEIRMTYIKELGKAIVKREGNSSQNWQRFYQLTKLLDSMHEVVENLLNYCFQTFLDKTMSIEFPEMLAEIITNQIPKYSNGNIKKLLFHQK

SMILES | Ki [1] [nM] | AP-1 Max % inhibition (measured in cellular transrepression assay) [2] [%] | EC50 [2] [nM] | EC50 ([2]; Homo sapiens) [nM]
CNC(=O)NC(=O)C(C)(C)[C@@H]1c2ccc(-c3cnc(N4CCN(C)CC4)nc3)nc2Oc2c(F)cccc21 [Example 18] | 239 | 21.96 | 5000 | –
CNC(=O)NC(=O)C(C)(C)[C@@H]1c2ccc(-c3ccc(OC(C)C)cc3)nc2Oc2c(F)cccc21 [Example 16] | 1.6 | 49.58 | 35.1 | –
CN(C)c1ccc(-c2ccc3c(n2)Oc2ccccc2[C@@H]3C(C)(C)C(=O)NC(N)=O)cn1 [Example 58] | 24.9 | 45.16 | 72.6 | –
CC(C)(C(=O)NC(N)=O)[C@@H]1c2ccc(-c3ccc(C(=O)O)nc3)nc2Oc2c(F)cccc21 [Example 63] | 10.8 | 39.61 | 142 | –
CC(C)(C(=O)NC(N)=O)C1c2ccccc2Oc2ccccc21 [Example 75] | 32 | 10.32 | – | 5000
COc1ccc(CNC(=O)NC(=O)C(C)(C)[C@@H]2c3ccc(-c4ccc(C(C)(C)O)cc4)nc3Oc3c(F)cccc32)cc1 [Example 29] | 3.33 | 51.82 | – | 646
CC(C)(C(=O)NC(N)=O)[C@@H]1c2ccc(-c3ccc(-n4cnnn4)cc3)nc2Oc2c(F)cccc21 [Example 45] | 0.82 | 55.41 | 7.77 | –
CNC(=O)NC(=O)C(C)(C)[C@@H]1c2ccc(-c3ccc(N4CCOCC4)nc3)nc2Oc2c(F)cccc21 [Example 27] | 10.9 | 16.38 | – | 5000
CC(C)(C(=O)NC(N)=O)[C@H]1c2ccccc2Oc2nc(-c3ccc(C(=O)N4CCCC4)cc3)ccc21 [Example 40] | 1.93 | 68.22 | 8.69 | –
CC(=O)Nc1ccc(-c2ccc3c(n2)Oc2c(F)cccc2[C@@H]3C(C)(C)C(=O)NC(N)=O)cn1 [Example 61] | 4.26 | 39.15 | 31.1 | –
CC(C)(C(=O)NC(N)=O)[C@@H]1c2ccc(-c3ccc(S(C)(=O)=O)cc3)nc2Oc2c(F)cccc21 [Example 33] | 0.59 | 64.54 | 5.82 | –
CCS(=O)(=O)c1ccc(-c2ccc3c(n2)Oc2c(F)cccc2[C@@H]3C(C)(C)C(=O)NC(=O)NC)cc1 [Example 12] | 5.04 | 36.42 | 85.7 | –
CC(C)(C(=O)NC(N)=O)[C@@H]1c2ccc(-c3ccc(C(=O)N4CCCC4)nc3)nc2Oc2c(F)cccc21 [Example 46] | 1.97 | 65.90 | 16.5 | –
CCCCc1ccc(-c2ccc3c(n2)Oc2c(F)cccc2[C@@H]3C(C)(C)C(=O)NC(N)=O)cc1 [Example 43] | 0.91 | 67.14 | 5.39 | –
CC(C)(C(=O)NC(N)=O)[C@H]1c2ccccc2Oc2nc(-c3ccc(C(=O)N4CCOCC4)nc3)ccc21 [Example 55] | – | 60.59 | 116 | –
CC(C)S(=O)(=O)c1ccc(-c2ccc3c(n2)Oc2ccccc2[C@@H]3C(C)(C)C(=O)NC(N)=O)cc1 [Example 82] | – | 60.06 | – | 6.69
CC(C)(O)CNC(=O)NC(=O)C(C)(C)[C@@H]1c2ccc(-c3ccc(C(=O)N4CCOCC4)cc3)nc2Oc2c(F)cccc21 [Example 78] | – | 46.32 | – | 340
CC(=O)NC(=O)C(C)(C)[C@@H]1c2ccc(-c3ccc(C(=O)N(C)C)cc3)nc2Oc2c(F)cccc21 [Example 3] | – | 79.66 | – | 267

From patent US9593113B2, “Imide and acylurea derivatives as modulators of the glucocorticoid receptor” (BRISTOL-MYERS SQUIBB COMPANY, priority 2013, dated 2017)
